The results in this text go back to patent EP2573192A1, “METHOD AND KIT FOR DIAGNOSING AIM-RELATED ILLNESS” (Miyazaki, Toru, priority 2010, dated 2011).

This assay concerns the target FAS (Mus musculus, UniProt P19096). As to the kind of experiment: FAS activity of treated 3T3-L1 cells (method of Kelley, NADPH oxidation). In kind it is cell-based. Conditions: C75 25 µM, 6 days; compared with rAIM.

Sequence of FAS (P19096 whole entry): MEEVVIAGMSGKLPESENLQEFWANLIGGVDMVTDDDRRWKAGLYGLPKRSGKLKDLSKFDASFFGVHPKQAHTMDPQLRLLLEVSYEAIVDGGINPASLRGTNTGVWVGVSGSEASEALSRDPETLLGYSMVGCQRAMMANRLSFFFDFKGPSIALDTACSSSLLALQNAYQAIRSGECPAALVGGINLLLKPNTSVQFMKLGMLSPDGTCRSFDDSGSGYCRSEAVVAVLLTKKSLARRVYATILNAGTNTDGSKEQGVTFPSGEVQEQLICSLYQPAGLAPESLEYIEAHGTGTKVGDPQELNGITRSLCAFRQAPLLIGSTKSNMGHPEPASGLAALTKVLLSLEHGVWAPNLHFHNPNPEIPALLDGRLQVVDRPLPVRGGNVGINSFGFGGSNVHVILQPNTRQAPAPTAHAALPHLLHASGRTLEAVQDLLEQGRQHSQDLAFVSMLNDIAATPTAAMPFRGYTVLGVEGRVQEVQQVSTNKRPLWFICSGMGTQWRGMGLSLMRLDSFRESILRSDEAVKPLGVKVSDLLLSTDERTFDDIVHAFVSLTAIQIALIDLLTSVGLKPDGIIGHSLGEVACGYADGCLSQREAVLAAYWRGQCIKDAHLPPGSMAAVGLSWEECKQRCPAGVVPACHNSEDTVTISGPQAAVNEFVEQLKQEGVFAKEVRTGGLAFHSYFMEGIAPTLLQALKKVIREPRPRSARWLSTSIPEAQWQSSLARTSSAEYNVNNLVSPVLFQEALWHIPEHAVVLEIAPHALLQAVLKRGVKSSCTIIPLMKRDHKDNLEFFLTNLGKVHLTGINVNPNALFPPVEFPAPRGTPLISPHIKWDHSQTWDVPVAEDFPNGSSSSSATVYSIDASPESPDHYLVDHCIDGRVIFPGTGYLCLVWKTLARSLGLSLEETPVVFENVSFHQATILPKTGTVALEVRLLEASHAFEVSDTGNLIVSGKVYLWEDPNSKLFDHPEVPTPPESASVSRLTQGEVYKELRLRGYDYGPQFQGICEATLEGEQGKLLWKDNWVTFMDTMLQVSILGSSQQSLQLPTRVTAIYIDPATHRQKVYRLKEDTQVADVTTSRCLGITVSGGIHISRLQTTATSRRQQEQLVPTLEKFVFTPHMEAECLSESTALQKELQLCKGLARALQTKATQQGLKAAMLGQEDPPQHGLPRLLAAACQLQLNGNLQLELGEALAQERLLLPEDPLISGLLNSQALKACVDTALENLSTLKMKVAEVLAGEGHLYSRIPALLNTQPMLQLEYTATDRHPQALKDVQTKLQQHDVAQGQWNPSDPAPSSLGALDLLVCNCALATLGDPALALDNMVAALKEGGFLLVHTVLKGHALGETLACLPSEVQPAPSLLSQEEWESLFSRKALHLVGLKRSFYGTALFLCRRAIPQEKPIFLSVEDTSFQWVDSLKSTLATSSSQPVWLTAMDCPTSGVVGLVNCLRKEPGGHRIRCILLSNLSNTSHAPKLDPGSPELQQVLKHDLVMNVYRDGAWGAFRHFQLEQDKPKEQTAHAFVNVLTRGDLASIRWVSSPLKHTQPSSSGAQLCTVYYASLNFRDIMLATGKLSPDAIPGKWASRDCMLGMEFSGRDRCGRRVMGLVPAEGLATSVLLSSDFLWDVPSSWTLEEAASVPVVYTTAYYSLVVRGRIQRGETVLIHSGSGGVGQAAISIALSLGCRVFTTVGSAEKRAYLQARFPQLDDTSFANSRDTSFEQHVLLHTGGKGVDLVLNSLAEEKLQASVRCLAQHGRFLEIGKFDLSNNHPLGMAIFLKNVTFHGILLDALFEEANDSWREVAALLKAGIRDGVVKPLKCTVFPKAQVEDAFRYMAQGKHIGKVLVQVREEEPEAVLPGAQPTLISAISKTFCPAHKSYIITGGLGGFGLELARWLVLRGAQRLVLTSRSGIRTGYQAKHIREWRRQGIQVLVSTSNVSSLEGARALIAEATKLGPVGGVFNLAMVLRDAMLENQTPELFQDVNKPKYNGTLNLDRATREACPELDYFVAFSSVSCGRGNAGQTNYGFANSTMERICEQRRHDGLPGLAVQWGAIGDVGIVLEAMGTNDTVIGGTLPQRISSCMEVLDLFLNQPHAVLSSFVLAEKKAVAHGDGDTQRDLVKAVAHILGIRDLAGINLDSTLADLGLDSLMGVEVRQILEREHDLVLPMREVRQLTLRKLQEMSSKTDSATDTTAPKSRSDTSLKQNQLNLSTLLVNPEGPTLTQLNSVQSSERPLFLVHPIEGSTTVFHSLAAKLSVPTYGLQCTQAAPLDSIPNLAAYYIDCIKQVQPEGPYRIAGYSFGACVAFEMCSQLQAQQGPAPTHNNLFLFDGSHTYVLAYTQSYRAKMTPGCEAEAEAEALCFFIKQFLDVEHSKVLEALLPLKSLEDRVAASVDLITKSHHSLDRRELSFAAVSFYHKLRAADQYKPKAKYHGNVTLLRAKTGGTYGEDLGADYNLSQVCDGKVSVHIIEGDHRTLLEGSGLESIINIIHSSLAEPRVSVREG
Method: The influence of AIM on FAS activity of adipocyte or adipose tissue was examined. FAS activity was measured by the method of Kelley (Kelley et al., Biochem. J., 1986, 235:87-90) with slight modification. 3T3-L1 adipocytes, or lysates of adipose tissue of obese mice was mixed with acetyl-CoA and NADPH (0.2 M calcium phosphate buffer [pH 7.0] containing 0.4 mM EDTA), and the mixture was placed in a spectrophotometer cuvette and maintained at 30°C. 20 µl of malonyl-CoA solution (0.2 mM) was added to start an enzyme reaction and decrease of OD was measured at a chart speed 2 cm/min. Based on the results, the enzyme activity of FAS was evaluated using the molar extinction coefficient of oxidized NADPH as 6220.
First, the FAS activity of 3T3-L1 cells treated for 6 days in the presence or absence of rAIM (5 µg/ml), and in the presence of C75 (25 µM) was measured. […] The samples were dissolved (lysed) and the FAS activity was measured. The data was converted to that based on FAS protein, according to the results of WB performed using the same sample.

As to `C=C1C(=O)OC(CCCCCCCC)C1C(=O)O` (stereo not shown) [C75], the “level of suppression of FAS activity in 3T3-L1 adipocytes” value is listed as “level of suppression was the same”.
